Results taken from US20260007683A1, “PHARMACEUTICAL COMPOSITIONS COMPRISING HIV INTEGRASE INHIBITORS” (Gilead Sciences, Inc., priority 2024, published 2026).

Tests used:
[1] = Hygroscopicity by dynamic vapor sorption (DVS); type: physicochemical; details: for change of solid form post DVS experiment: after DVS cycle 5-95% RH at 25° C.; for water absorbed (dynamic vapor sorption): up to 95% RH at 25° C.
Description: Hygroscopicity was studied using dynamic vapor sorption (DVS, TA Q5000 SA, TA Instruments, New Castle, DE or DVS, DVS Intrinsic, Surface Measurement Systems, London, UK). A sample (1-20 mg) was placed in an aluminum DVS pan and loaded on the sample side of the twin pan balance. The water sorption and desorption were studied as a function of relative humidity (RH) at 25° C. In 10% RH increments, the relative humidity was increased from 5% RH to 95% RH and then decreased back to 5%. […] Data analysis was performed using Universal Analysis 2000 Version 4.7A (TA Instruments, New Castle, DE) for TA DVS runs and Microsoft Excel for SMS DVS runs.

[2] = Drying of solid form under ambient conditions (form conversion); type: physicochemical
From the text: Compound of Formula I, Form II is a metastable methanol solvated phase. It was isolated when compound of Formula I, Form I was slurried in methanol for about 60 days and identified by x-ray of the wet cake.

Row | SMILES | change of solid form post DVS experiment [1] | water absorbed (dynamic vapor sorption) [1] | form conversion upon drying [2]
1 | O=C(NCc1c(F)cc(F)cc1F)c1cn2c(c(O)c1=O)C(=O)N1CCCC[C@H]2C1 [Compound of Formula I, Form I, (7S)-12-hydroxy-1,11-dioxo-N-(2,4,6-trifluorobenzyl)-1,4,5,6,7,11-hexahydro-3H-2,7-methanopyrido[1,2-a][1,4]diazonine-10-carboxamide] | not have changed form | about 0.097% | 
2 | O=C(NCc1c(F)cc(F)cc1F)c1cn2c(c(O)c1=O)C(=O)N1CCCC[C@H]2C1 [Compound of Formula I, Form II, (7S)-12-hydroxy-1,11-dioxo-N-(2,4,6-trifluorobenzyl)-1,4,5,6,7,11-hexahydro-3H-2,7-methanopyrido[1,2-a][1,4]diazonine-10-carboxamide] |  |  | convert to compound of Formula I, Form III
3 | O=C(NCc1c(F)cc(F)cc1F)c1cn2c(c(O)c1=O)C(=O)N1CCCC[C@H]2C1 [Compound of Formula I, Form III, (7S)-12-hydroxy-1,11-dioxo-N-(2,4,6-trifluorobenzyl)-1,4,5,6,7,11-hexahydro-3H-2,7-methanopyrido[1,2-a][1,4]diazonine-10-carboxamide] | not have changed form | about 0.87% | 
4 | O=C(NCc1c(F)cc(F)cc1F)c1cn2c(c(O)c1=O)C(=O)N1CCCC[C@H]2C1 [Compound of Formula I, Form IV, (7S)-12-hydroxy-1,11-dioxo-N-(2,4,6-trifluorobenzyl)-1,4,5,6,7,11-hexahydro-3H-2,7-methanopyrido[1,2-a][1,4]diazonine-10-carboxamide] | not have changed form | about 3.5% | 
